Biological target: TRPA1 (Homo sapiens, UniProt O75762)
Experiment: Determination of TRPA1 activity in vitro (TRPA1 antagonism in vitro)
Type: cell-based
Details: procedure of Wei et al., Anesthesiology 111 (2009) 147-154

Sequence of TRPA1 (O75762 whole entry): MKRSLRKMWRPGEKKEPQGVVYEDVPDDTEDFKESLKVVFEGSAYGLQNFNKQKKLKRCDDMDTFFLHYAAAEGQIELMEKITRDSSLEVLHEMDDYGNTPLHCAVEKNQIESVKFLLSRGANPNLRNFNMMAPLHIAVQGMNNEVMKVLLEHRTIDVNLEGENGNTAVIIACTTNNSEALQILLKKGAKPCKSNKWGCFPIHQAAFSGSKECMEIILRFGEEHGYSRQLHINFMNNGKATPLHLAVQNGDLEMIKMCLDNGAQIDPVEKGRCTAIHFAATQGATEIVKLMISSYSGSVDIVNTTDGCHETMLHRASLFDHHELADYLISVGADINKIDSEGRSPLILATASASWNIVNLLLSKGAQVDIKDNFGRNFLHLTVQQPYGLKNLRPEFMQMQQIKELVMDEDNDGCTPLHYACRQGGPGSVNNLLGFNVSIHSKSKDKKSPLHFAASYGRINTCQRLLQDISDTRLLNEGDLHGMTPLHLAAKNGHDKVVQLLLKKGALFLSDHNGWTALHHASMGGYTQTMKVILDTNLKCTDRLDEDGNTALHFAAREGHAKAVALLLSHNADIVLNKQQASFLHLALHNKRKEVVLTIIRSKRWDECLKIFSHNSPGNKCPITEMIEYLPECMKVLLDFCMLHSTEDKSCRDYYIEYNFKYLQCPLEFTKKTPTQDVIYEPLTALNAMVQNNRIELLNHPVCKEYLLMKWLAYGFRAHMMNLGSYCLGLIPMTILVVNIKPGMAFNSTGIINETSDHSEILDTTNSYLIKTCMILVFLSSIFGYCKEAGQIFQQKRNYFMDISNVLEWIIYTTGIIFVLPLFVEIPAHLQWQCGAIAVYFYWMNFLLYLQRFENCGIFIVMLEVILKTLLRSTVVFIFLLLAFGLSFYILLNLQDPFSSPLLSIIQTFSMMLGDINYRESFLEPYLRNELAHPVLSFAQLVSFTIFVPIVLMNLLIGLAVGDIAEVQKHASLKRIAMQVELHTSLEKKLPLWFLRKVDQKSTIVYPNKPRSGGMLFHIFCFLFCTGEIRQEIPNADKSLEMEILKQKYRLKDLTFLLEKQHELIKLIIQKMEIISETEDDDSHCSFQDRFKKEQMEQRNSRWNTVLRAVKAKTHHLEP

C#CC(C)(C)NC(=O)c1cncnc1NCC(F)(F)C(F)(F)F [Example 132, N-(2-Methylbut-3-yn-2-yl)-4-(2,2,3,3,3-pentafluoropropylamino)-pyrimidine-5-carboxamide]
IC50: 13.8 µM

C#CC(C)(C)NC(=O)c1cccnc1NC1CC(F)(F)C1 [Example 133, 2-(3,3-Difluorocyclobutylamino)-N-(2-methylbut-3-yn-2-yl)nicotinamide]
IC50: 5.9 µM

C#CC(C)(C)NC(=O)c1ccncc1Nc1ccc(Cl)cc1 [Example 134, 3-((4-Chlorophenyl)amino)-N-(2-methylbut-3-yn-2-yl)isonicotinamide]
IC50: 4.3 µM

C#CC(C)(C)NC(=O)c1cc(F)cc(F)c1NCCC(F)F [Example 135, 2-(3,3-Difluoropropylamino)-3,5-difluoro-N-(2-methylbut-3-yn-2-yl)benzamide]
IC50: 5 µM

C#CC(C)(C)NC(=O)c1sccc1NCC(C)C [Example 136, 3-(Isobutylamino)-N-(2-methylbut-3-yn-2-yl)thiophene-2-carboxamide]
IC50: 8.7 µM

C#CC(C)(C)NC(=O)c1cc(F)cnc1Nc1cc(C)ns1 [Example 137, 5-Fluoro-N-(2-methylbut-3-yn-2-yl)-2-(3-methylisothiazol-5-ylamino)nicotinamide]
IC50: 9.9 µM

C#CC(C)(C)NC(=O)c1cc(Cl)cnc1Nc1cccnc1 [Example 138, 5-Chloro-N-(2-methylbut-3-yn-2-yl)-2-(pyridin-3-ylamino)nicotinamide]
IC50: 12 µM

C#CC(C)(C)NC(=O)c1cc(Cl)cnc1NC1CC(F)(F)C1 [Example 139, 5-Chloro-2-(3,3-difluorocyclobutylamino)-N-(2-methylbut-3-yn-2-yl)nicotinamide]
IC50: 0.3 µM

C#CC(C)(C)NC(=O)c1cc(F)cnc1Nc1ccc(C2CCCC2)nc1 [Example 140, 2-(6-Cyclopentylpyridin-3-ylamino)-5-fluoro-N-(2-methylbut-3-yn-2-yl)nicotinamide]
IC50: 5.5 µM

C#CC(C)(C)NC(=O)c1cc(C(F)(F)F)cnc1NC1CC(F)(F)C1 [Example 141, 2-(3,3-Difluorocyclobutylamino)-N-(2-methylbut-3-yn-2-yl)-5-(trifluoromethyl)nicotinamide]
IC50: 0.3 µM

C#CC(C)(C)NC(=O)c1cccnc1NCCc1ccccc1 [Example 142, N-(2-Methylbut-3-yn-2-yl)-2-(phenethylamino)nicotinamide]
IC50: 5.8 µM

C#CC(C)(C)NC(=O)c1cccnc1NCCCc1ccccc1 [Example 143, N-(2-Methylbut-3-yn-2-yl)-2-(3-phenylpropylamino)nicotinamide]
IC50: 3.8 µM

C#CC(C)(C)NC(=O)c1cc(F)cnc1NCCCOc1ccc(F)cc1 [Example 144, 5-Fluoro-2-(3-(4-fluorophenoxy)propylamino)-N-(2-methylbut-3-yn-2-yl)nicotinamide]
IC50: 2.6 µM

C#CC(C)(C)NC(=O)c1cc(F)cnc1NCCOc1ccc(F)cc1 [Example 145, 5-Fluoro-2-(2-(4-fluorophenoxy)ethylamino)-N-(2-methylbut-3-yn-2-yl)nicotinamide]
IC50: 3.3 µM

C#CC(C)(C)NC(=O)c1cc(Cl)cnc1NCCCOCC [Example 146, 5-Chloro-2-(3-ethoxypropylamino)-N-(2-methylbut-3-yn-2-yl)nicotinamide]
IC50: 5.9 µM

C#CC(C)(C)NC(=O)c1cc(Cl)cnc1NCCOC(C)(C)C [Example 147, 2-(2-tert-Butoxyethylamino)-5-chloro-N-(2-methylbut-3-yn-2-yl)nicotinamide]
IC50: 5.2 µM

C#CC(C)(C)NC(=O)c1cc(Cl)cnc1NCCOCC [Example 148, 5-Chloro-2-(2-ethoxyethylamino)-N-(2-methylbut-3-yn-2-yl)nicotinamide]
IC50: 14.9 µM

C#CC(C)(C)NC(=O)c1cccnc1Nc1ccc(C)c(F)c1 [Example 149, 2-(3-Fluoro-4-methylphenylamino)-N-(2-methylbut-3-yn-2-yl)nicotinamide]
IC50: 0.5 µM

C#CC(C)(C)NC(=O)c1cccnc1Nc1ccc(OC)c(Cl)c1 [Example 150, 2-(3-Chloro-4-methoxyphenylamino)-N-(2-methylbut-3-yn-2-yl)nicotinamide]
IC50: 1.9 µM

C#CC(C)(C)NC(=O)c1cccnc1Nc1cc(F)cc(F)c1 [Example 151, 2-(3,5-Difluorophenylamino)-N-(2-methylbut-3-yn-2-yl)nicotinamide]
IC50: 0.5 µM

C#CC(C)(C)NC(=O)c1cc(C(F)F)cnc1NC1CC(F)(F)C1 [Example 152, 2-(3,3-Difluorocyclobutylamino)-5-(difluoromethyl)-N-(2-methylbut-3-yn-2-yl)nicotinamide]
IC50: 2.4 µM

C#CC(C)(C)NC(=O)c1cc(OCC)ccc1NCCC [Example 154, 5-Ethoxy-N-(2-methylbut-3-yn-2-yl)-2-(propylamino)benzamide]
IC50: 7.1 µM

C#CC(C)(C)NC(=O)c1cc(Cl)cnc1NC(C)(C)C [Example 155, 2-(tert-Butylamino)-5-chloro-N-(2-methylbut-3-yn-2-yl)nicotinamide]
IC50: 0.8 µM

C#CC(C)(C)NC(=O)c1cc(F)cnc1NC1CC(F)(F)C1 [Example 156, 2-(3,3-Difluorocyclobutylamino)-5-fluoro-N-(2-methylbut-3-yn-2-yl)nicotinamide]
IC50: 1.6 µM

C#CC(C)(C)NC(=O)c1cc(F)cnc1Nc1ccc(F)cc1 [Example 157, 5-Fluoro-2-(4-fluorophenylamino)-N-(2-methylbut-3-yn-2-yl)nicotinamide]
IC50: 0.7 µM

C#CC(C)(C)NC(=O)c1cc(F)cnc1NC(C)C(F)(F)F (stereo not shown) [Example 158, 5-Fluoro-N-(2-methylbut-3-yn-2-yl)-2-(1,1,1-trifluoropropan-2-ylamino)nicotinamide]
IC50: 4 µM

C#CC(C)(C)NC(=O)c1cnccc1Nc1ccc(Cl)cc1 [Example 159, 4-(4-Chlorophenylamino)-N-(2-methylbut-3-yn-2-yl)nicotinamide]
IC50: 11.4 µM

C#CC(C)(C)NC(=O)c1cc(F)cnc1Nc1ccccc1 [Example 160, 5-Fluoro-N-(2-methylbut-3-yn-2-yl)-2-(phenylamino)nicotinamide]
IC50: 1.4 µM

C#CC(C)(C)NC(=O)c1cncnc1Nc1ccc(C(F)(F)F)cc1 [Example 161, N-(2-Methylbut-3-yn-2-yl)-4-(4-(trifluoromethyl)phenylamino)-pyrimidine-5-carboxamide]
IC50: 1.3 µM

C#CC(C)(C)NC(=O)c1cc(F)cnc1NC(C)(C)C [Example 162, 2-(tert-Butylamino)-5-fluoro-N-(2-methylbut-3-yn-2-yl)nicotinamide]
IC50: 3.7 µM

C#CC(CC)(CC)NC(=O)c1cc(F)cnc1NC1CC(F)(F)C1 [Example 163, 2-(3,3-Difluorocyclobutylamino)-N-(3-ethylpent-1-yn-3-yl)-5-fluoronicotinamide]
IC50: 0.1 µM

C#CC(C)(CC)NC(=O)c1cc(F)cnc1NC1CC(F)(F)C1 (stereo not shown) [Example 164, 2-(3,3-Difluorocyclobutylamino)-5-fluoro-N-(3-methylpent-1-yn-3-yl)nicotinamide]
IC50: 0.1 µM

C#CC(C)(C)NC(=O)c1cccnc1Nc1cc(F)cc(OC)c1 [Example 165, 2-(3-Fluoro-5-methoxyphenylamino)-N-(2-methylbut-3-yn-2-yl)nicotinamide]
IC50: 4 µM

C#CC(C)(CC)NC(=O)c1cccnc1Nc1cc(F)cc(OC)c1 (stereo not shown) [Example 166, 2-(3-Fluoro-5-methoxyphenylamino)-N-(3-methylpent-1-yn-3-yl)nicotinamide]
IC50: 0.6 µM
